Here are results for 13 molecules from patent publication US10849881B2, “Octahydro-cyclobuta[1,2-c;3,4-c′]dipyrrol-2-yl” (Hoffmann-La Roche Inc., priority 2013, dated 2020).

pIC50: −log10 of the molar value.

The assay deals with ATX (human His-tagged) (Homo sapiens (Human), UniProt Q13822). In words: Human ATX enzyme inhibition assay (fluorescence quenching, MR121 substrate). The class given is biochemical. The settings on record: 30 nM ATX, 1 μM MR121 substrate, 30° C., pH 8.0. In a few lines:
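Fluorescence quenching assay with MR121/tryptophan-labelled substrate analogue in Tris-HCl buffer (140 mM NaCl, CaCl2, MgCl2, 0.01% Triton X-100, pH 8.0). Serially diluted compounds were preincubated 15 min at 30 °C with 30 nM ATX (final), then 1 µM substrate (final) added and incubated 15 min at 30 °C.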
What is called pIC50 is the negative decadic logarithm of the IC50, by convention in mol/L. High values mean a low IC50, low ones a high IC50. With `O=C(c1cnc(OCC(F)(F)F)c(C(F)(F)F)c1)N1C[C@@H]2[C@H](C1)[C@H]1CN(C(=O)c3ccc4[nH]nnc4c3)C[C@@H]21` [Example 1.105, (1H-benzotriazol-5-yl)-{(3aS,3bS,6aR,6bR)-5-[6-(2,2,2-trifluoro-ethoxy)-5-trifluoromethyl-pyridine-3-carbonyl]-octahydro-cyclobuta[1,2-c;3,4-c′]dipyrrol-2-yl}-methanone], the pIC50 was 8.10.
As for `O=C(c1cnc(OCC(F)(F)F)c(C2CCOCC2)c1)N1C[C@@H]2[C@H](C1)[C@H]1CN(C(=O)c3ccc4[nH]nnc4c3)C[C@@H]21` [Example 1.106, (1H-benzotriazol-5-yl)-{(3aS,3bS,6aR,6bR)-5-[5-(tetrahydro-pyran-4-yl)-6-(2,2,2-trifluoro-ethoxy)-pyridine-3-carbonyl]-octahydro-cyclobuta[1,2-c;3,4-c′]dipyrrol-2-yl}-methanone], the negative-log IC50 (pIC50) was 6.77.
`O=C(c1ccc2[nH]nnc2c1)N1C[C@@H]2[C@H](C1)[C@H]1CN(C(=O)c3cc(-c4ccc(Cl)cc4)c(OCC(F)(F)F)cn3)C[C@@H]21` [Example 1.107, (1H-benzotriazol-5-yl)-{(3aS,3bR,6aS,6bR)-5-[4-(4-chloro-phenyl)-5-(2,2,2-trifluoro-ethoxy)-pyridine-2-carbonyl]-octahydro-cyclobuta[1,2-c;3,4-c′]dipyrrol-2-yl}-methanone] had a pIC50 of 6.85.
Under `O=C(c1cnc(OCC(F)(F)F)c(-c2ccco2)c1)N1C[C@@H]2[C@H](C1)[C@H]1CN(C(=O)c3ccc4[nH]nnc4c3)C[C@@H]21` [Example 1.108, (1H-benzotriazol-5-yl)-{(3aS,3bS,6aR,6bR)-5-[5-furan-2-yl-6-(2,2,2-trifluoro-ethoxy)-pyridine-3-carbonyl]-octahydro-cyclobuta[1,2-c;3,4-c′]dipyrrol-2-yl}-methanone] stands 8.22; under `O=C(c1cnc(OCC(F)(F)F)c(Cl)c1)N1C[C@@H]2[C@H](C1)[C@H]1CN(C(=O)c3ccc4[nH]nnc4c3)C[C@@H]21` [Example 1.109, (1H-benzotriazol-5-yl)-{(3aS,3bS,6aR,6bR)-5-[5-chloro-6-(2,2,2-trifluoro-ethoxy)-pyridine-3-carbonyl]-octahydro-cyclobuta[1,2-c;3,4-c′]dipyrrol-2-yl}-methanone], 6.52; under `CCOc1cc(C(=O)N2C[C@@H]3[C@H](C2)[C@H]2CN(C(=O)c4ccc5[nH]nnc5c4F)C[C@@H]32)nc2ccccc12` [Example 1.110, [(3aS,3bR,6aS,6bR)-5-(4-ethoxy-quinoline-2-carbonyl)-octahydro-cyclobuta[1,2-c;3,4-c′]dipyrrol-2-yl]-(4-fluoro-1H-benzotriazol-5-yl)-methanone], 7.49.
Regarding `CS(=O)(=O)c1cc(C(=O)N2C[C@@H]3[C@H]4CN(C(=O)c5ccccc5)C[C@H]4[C@@H]3C2)cnc1OCC(F)(F)F` [Example 1.111, {(3aS,3bS,6aR,6bR)-5-[5-methanesulfonyl-6-(2,2,2-trifluoro-ethoxy)-pyridine-3-carbonyl]-octahydro-cyclobuta[1,2-c;3,4-c′]dipyrrol-2-yl}-phenyl-methanone], the pIC50 is 6.48.
Under `O=C(OCc1ccc(OC(F)(F)F)cc1)N1C[C@@H]2[C@H](C1)[C@H]1CN(C(=O)c3ccc4[nH]nnc4c3)C[C@@H]21` [Example 2, (3aR,3bS,6aR,6bS)-5-(1H-Benzotriazole-5-carbonyl)-octahydro-cyclobuta[1,2-c;3,4-c′]dipyrrole-2-carboxylic acid 4-trifluoromethoxy-benzyl Ester] stands 7.85; under `O=C(OCc1cc(Cl)cc(Cl)c1)N1C[C@@H]2[C@H](C1)[C@H]1CN(C(=O)c3ccc4[nH]nnc4c3)C[C@@H]21` [Example 2.001, (3aR,3bS,6aR,6bS)-5-(1H-Benzotriazole-5-carbonyl)-octahydro-cyclobuta[1,2-c;3,4-c′]dipyrrole-2-carboxylic Acid 3,5-dichloro-benzyl Ester], 8.35.
The value for `O=C(c1ccc2[nH]nnc2c1)N1C[C@@H]2[C@H](C1)[C@H]1CN(S(=O)(=O)c3ccc(-c4ccc(F)cc4)cc3)C[C@@H]21` [Example 3, (1H-Benzotriazol-5-yl)-[(3aS,3bR,6aS,6bR)-5-(4′-fluoro-biphenyl-4-sulfonyl)-octahydro-cyclobuta[1,2-c;3,4-c′]dipyrrol-2-yl]-methanone] was 6.76; that for `O=C(c1ccc2[nH]nnc2c1)N1C[C@@H]2[C@H](C1)[C@H]1CN(S(=O)(=O)c3ccc4cc(Cl)ccc4c3)C[C@@H]21` [Example 3.001, (1H-Benzotriazol-5-yl)-[(3aS,3bR,6aS,6bR)-5-(6-chloro-naphthalene-2-sulfonyl)-octahydro-cyclobuta[1,2-c;3,4-c′]dipyrrol-2-yl]-methanone] was 6.63.
Molecule `O=C(c1ccc2[nH]nnc2c1)N1C[C@@H]2[C@H](C1)[C@H]1CN(C(=O)N3CCc4cc(C(F)(F)F)ccc4C3)C[C@@H]21` [Example 4, [(3aR,3bS,6aR,6bS)-5-(1H-Benzotriazole-5-carbonyl)-octahydro-cyclobuta[1,2-c;3,4-c′]dipyrrol-2-yl]-(6-trifluoromethyl-3,4-dihydro-1H-isoquinolin-2-yl)-methanone] showed a pIC50 of 7.15.
The molecule “(1H-benzotriazol-yl)-{(3aS,3bS,6aR,6bR)-5-[5-bromo-2-methyl-6-(2,2,2-trifluoro-ethoxy)-pyridine-3-carbonyl]-octahydro-cyclobuta[1,2-c;3,4-c′]dipyrrol-2-yl}-methanone [Example 1.103]” had a pIC50 of 7.57.
